The structures appear in SMILES notation. pKd: −log10 of the molar value. Entries after “also recorded” stand apart in the source; their conditions may differ.

The target in assay [1] is T1, HNF4γ LBD (Homo sapiens, UniProt Q14541).
T1 construct: HNF4γ amino acids 102-408; made in house; host or cells: E. coli BL21 (DE3), vector pRSETa
T1 sequence (Q14541 102-408): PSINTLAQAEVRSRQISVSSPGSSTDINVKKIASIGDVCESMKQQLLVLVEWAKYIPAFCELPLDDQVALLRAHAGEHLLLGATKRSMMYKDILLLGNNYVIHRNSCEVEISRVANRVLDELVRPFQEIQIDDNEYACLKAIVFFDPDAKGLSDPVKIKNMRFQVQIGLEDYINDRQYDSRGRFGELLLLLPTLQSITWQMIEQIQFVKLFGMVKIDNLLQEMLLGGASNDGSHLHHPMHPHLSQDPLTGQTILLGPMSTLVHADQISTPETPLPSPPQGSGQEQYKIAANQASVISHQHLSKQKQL
Put plainly: GC/MS identification of fatty acids bound to purified HNF4γ LBD (extract). It is filed as binding. As to conditions: lipid extract of purified HNF4γ LBD, methyl esters, CI and EI. The method, then:
The description of the bound ligand from the structural data led to the belief that the compound was a fatty acid. Analytical methods were used to obtain a definitive identification of the ligand. First, bound ligand(s) was separated from a purified preparation of HNF4γ LBD by liquid-liquid extraction (Folch et al., (1957) J. Biol. Chem. 226: 497-509). The extract was then treated with 3% (v/v) acetyl chloride in methanol. This reagent converts fatty acids to their corresponding fatty acid methyl esters (FAME). The derivatized sample was then analyzed by gas chromatography/mass spectrometry (GC/MS) using both electron impact ionization (EI) and chemical ionization (CI) in separate analyses. The constituents of the extract were identified by comparing the GC/MS data for the extract with data for standard fatty acids, acquired likewise.
The CI mass spectra for peaks a through g all show a protonated molecular ion ([M+H]^+) along with a fragment ion at a mass-to-charge (m/z) value 32 Da below the protonated molecular ion. […]
The second column lists the protonated molecular ion detected of each labeled peak in FIG. 4. […]
Lipids were extracted from an aliquot of HNF4γ LBD with chloroform/methanol 2:1 (v/v). […] The derivatized sample was then analyzed by GC/MS on a Shimadzu GC-17A QP-5050A instrument. […]

For assay [2], the target named is T2, HNF4α LBD / CBP (CREB-binding protein) (Homo sapiens, UniProt P41235).
T2 construct: HNF4α amino acids 141465 and HNF4γ amino acids 102-408; biotin (chemical biotinylation); made in house; host or cells: E. coli
T2 sequence (P41235 150-474 limits assumed): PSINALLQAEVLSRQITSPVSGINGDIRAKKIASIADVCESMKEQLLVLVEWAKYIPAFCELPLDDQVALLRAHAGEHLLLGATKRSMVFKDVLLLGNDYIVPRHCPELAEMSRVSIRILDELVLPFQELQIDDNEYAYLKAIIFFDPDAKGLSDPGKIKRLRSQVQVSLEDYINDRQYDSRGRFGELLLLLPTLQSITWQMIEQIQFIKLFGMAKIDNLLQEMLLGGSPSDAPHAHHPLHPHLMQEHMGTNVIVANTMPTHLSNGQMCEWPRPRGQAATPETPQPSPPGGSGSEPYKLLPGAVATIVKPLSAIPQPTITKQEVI
The experiment in a line: FRET assay of CBP recruitment to HNF4α LBD. It is filed as biochemical. To be noted: cell-free FRET; for pKd: dose dependent, read-out: apparent binding constant (increase of CBP-HNF4 interaction); for effect on CBP recruitment / association between HNF4 and CBP: ligands incubated 15 minutes at 21° C. The method, then:
(§1) To confirm that fatty acids were functional HNF4 ligands, HNF4α and HNF4γ were tested for their ability to recruit the nuclear receptor co-activator CREB binding protein, a known activation partner (Wang et al., (1998) J. Biol. Chem. 273: 30847-50; Dell & Hadzopoulou-Cladaras, (1999) J. Biol. Chem. 274: 9013-21). A FRET (fluorescent resonance energy transfer) assay was employed using purified recombinant CREB-binding protein (CBP) and HNF4 LBD (Zhou et al., (1998) Mol. Endocrinol. 12: 1594-1604). Long-chain fatty acids (LCFA) with increasing carbon lengths from 12 to 18 carbon methylene units were tested for their ability to modulate the association between HNF4 and CBP in a dose dependent manner. […] Palmitic and stearic acids increased the allosteric interaction between CBP and HNF4, with apparent binding constants of 1 μM.
(§2) The reported ligands for HNF4α are fatty acyl-CoA thioesters (Hertz et al., (1998) Nature (London) 392: 512-16), which are much larger than other nuclear receptor ligands (Bogan et al., (1998) Nat. Struct. Biol. 5: 679-81). […] Shorter fatty acyl-CoAs had no effect on CBP association.
(§3) A cell-free fluorescent resonance energy transfer (FRET) assay was used to measure the association between the amino portion of CBP (CREB-binding protein) (residues 54-457) and the HNF4 LBD (HNF4α amino acids 141465 and HNF4γ amino acids 102-408) (Zhou et al., (1998) Mol. Endocrinol 12: 1594-1604). Proteins were expressed in E. coli, purified to homogeneity, and biotinylated. CBP, the fluorescence donor, was labeled with a europium chelate, and HNF4 LBD was labeled with the streptavidin-conjugated fluorophore allophycocyanin (Molecular Probes, Eugene, Oreg.). Labeled HNF4 LBD and CBP were incubated together with ligands for 15 minutes at 21° C. before assaying. A small basal level was observed, as depicted in FIG. 3.

Assay [3] concerns the target T3, HNF4γ LBD / CBP (CREB-binding protein) (Homo sapiens, UniProt Q14541).
T3 construct: HNF4γ amino acids 102-408; biotin (chemical biotinylation); made in house; host or cells: E. coli
T3 sequence (Q14541 102-408): T1 sequence (Q14541 102-408)
The experiment in a line: FRET assay of CBP recruitment to HNF4γ LBD. It counts as biochemical. To be noted: cell-free FRET; for pKd: dose dependent, read-out: apparent binding constant (increase of CBP-HNF4 interaction); for effect on CBP recruitment / association between HNF4 and CBP: ligands incubated 15 minutes at 21° C. The method, then:
as §1, §2, §3

Assay [4] has as its target T4, HNF4α (Homo sapiens, UniProt P41235).
T4 sequence (P41235 1-474): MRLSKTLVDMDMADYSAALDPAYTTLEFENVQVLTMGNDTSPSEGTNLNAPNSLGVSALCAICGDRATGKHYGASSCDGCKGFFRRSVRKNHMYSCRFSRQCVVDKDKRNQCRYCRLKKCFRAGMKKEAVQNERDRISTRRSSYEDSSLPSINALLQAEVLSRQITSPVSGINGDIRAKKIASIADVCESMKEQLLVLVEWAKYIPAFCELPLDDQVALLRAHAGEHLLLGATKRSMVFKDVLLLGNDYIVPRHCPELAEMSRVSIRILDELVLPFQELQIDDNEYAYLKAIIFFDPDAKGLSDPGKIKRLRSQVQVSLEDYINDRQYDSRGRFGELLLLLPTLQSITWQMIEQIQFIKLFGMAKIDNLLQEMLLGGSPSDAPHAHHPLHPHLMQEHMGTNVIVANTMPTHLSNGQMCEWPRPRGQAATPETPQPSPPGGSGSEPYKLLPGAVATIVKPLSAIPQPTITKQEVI
The experiment in a line: GC/MS analyses of receptor extracts, HNF4α. It is filed as binding. The source says:
Palmitic acid forms hydrogen bonds with the side chain of arginine 186, and with the backbone nitrogen of glycine 197 (not shown). Alanine 215 corresponds to serine 256 in HNF4α. Because serine can form hydrogen bonds to the ligand, the specificity is different for the two receptor subtypes. […] Valine 214 corresponds to valine 255 in HNF4α, and is one of the mutations associated with MODY, Type 1.

Turning to `CCCCCCCCCCCCCCCC(=O)O` [palmitic acid], the “fatty acid found in HNF4γ extract by GC/MS” value in assay [1] was “most abundant component”. Further, in assay [2], the pKd was 6.00; the “effect on CBP recruitment / association between HNF4 and CBP” value is “functional activators; also recorded: increased”. Besides, in assay [3], the pKd is 6.00; the “effect on CBP recruitment / association between HNF4 and CBP” value is given as “functional activators; also recorded: increased”. Moreover, the “binding to HNF4α by GC/MS of receptor extracts” value in assay [4] is reported as “binds”.

Turning to `CCCCCCCCCCCCCCCC(=O)SCCNC(=O)CCNC(=O)[C@H](O)C(C)(C)COP(=O)(O)OP(=O)(O)OC[C@H]1O[C@@H](n2cnc3c(N)ncnc32)[C@H](O)[C@@H]1OP(=O)(O)O` [palmitoyl-CoA], the “effect on CBP recruitment / association between HNF4 and CBP” value in assay [2] and in assay [3] was “decreased the basal level” each time.

Consider `CCCCCCCCCCCCCCCCCC(=O)O` [stearic acid], for which the pKd in assay [2] and in assay [3] was 6.00 in each case. Also, the “effect on CBP recruitment / association between HNF4 and CBP” value in assay [2] and in assay [3] was “functional activators; also recorded: increased” throughout. Also, the “binding to HNF4α by GC/MS of receptor extracts” value in assay [4] is on record as “binds”.

For `CCCCCCCCCCCCCCCCCC(=O)SCCNC(=O)CCNC(=O)[C@H](O)C(C)(C)COP(=O)(O)OP(=O)(O)OC[C@H]1O[C@@H](n2cnc3c(N)ncnc32)[C@H](O)[C@@H]1OP(=O)(O)O` [steroyl-CoA], the “effect on CBP recruitment / association between HNF4 and CBP” value in assay [2] and in assay [3] was “decreased the basal level” throughout.

Values taken from patent publication US20050131209A1, “Crystallized hnf4 gamma ligand binding domain polypeptide and screening methods employing same” (priority 2001, published 2005).
